Assay results: patent US7579356B2, “Thia-tetraazaacenaphthylene kinase inhibitors” (Janssen Pharmaceutica NV, priority 2005, dated 2009)

Columns and labels:
HCT-116 colon carcinoma = assay: Cell Proliferation Inhibition Assay, HCT-116 (14C-thymidine); type: cell-based; details: Homo sapiens, HCT-116 cell proliferation
Description: (§1) Cell Proliferation Inhibition Assay
(§2) The ability of a test compound to inhibit unregulated cell proliferation may be determined by measuring incorporation of ^14C-labelled thymidine into newly synthesized DNA within cell lines derived from carcinomas originating from several tissues. Accordingly, the effect of a test compound on proliferation of cells with a variety of phenotypes may be determined.
(§3) Carcinoma cell lines used include the HeLa cervical adenocarcinoma from the American Type Culture Collection (ATCC Cat. #CCL2), A375 malignant melanoma (ATCC Cat. #CRL-1619), HCT-116 colon carcinoma (ATCC Cat. #CCL-247), SKBR3 breast carcinoma (ATCC Cat. #HTB-30) and BT474 breast carcinoma (ATCC Cat. #HTB-20).
(§4) The carcinoma cells were trypsinized and counted. The cells (3000-8000 count) were added to each well of a 96-well CytoStar tissue culture treated scintillating microplate (Amersham #RPNQ0160) in complete medium (100 μL) and the plate was then incubated in complete medium for 24 hrs at 37° C. in an inert atmosphere containing 5% CO2.
(§5) Test compound (1 μL) in 100% DMSO was added to the plate test-wells with DMSO only added to control-wells. The plate was incubated in complete medium for a second 24 hr period at 37° C. in an atmosphere containing 5% CO2.
(§6) An aliquot of a solution of Methyl ^14C-thymidine (56 mC/mmol) (NEN #NEC568 or AMersham #CFA532) and complete medium (20 uL to provide 0.2 μCl/well) was then added to each well and the plate was incubated for a third 24 hr period at 37° C. in an atmosphere containing 5% CO2.
(§7) The plate contents were then discarded, the plate washed twice with PBS (200 μL) and then PBS (200 μL) was added to each well. The plate was sealed and the degree of methyl ^14C-thymidine incorporation was quantified on a Packard Top Count.
(§8) Cell proliferation of the Hela cell line was measured using the ATP-Lite method as described in the ATP Lite Kit (Perkin-Elmer Kit Number 6106941) or the C^14 method as described above. Cell proliferation of the other cell lines was measured using the C^14 method.

EGFR = target: T1, EGFR (Homo sapiens, UniProt P00533); assay: EGFR Kinase Assay; type: biochemical; details: for IC50: GST-EGFR, ATP 5 μM; for inhibition at 2 µM: test concentration of 2 μM, compounds without an IC50, read-out: EGFR inhibition in percent
T1 construct: The intracellular portion of EGFR started at nucleotide 2189 (corresponding to amino acid 667) and ended at the termination codon; made in house; host or cells: Sf9 insect cells (baculovirus)
In short: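 Potency came from triplicate 16-point half-log titrations starting at 200 uM, with IC50 fitted from % inhibition against log concentration, or % inhibition at 2 μM otherwise. Reaction: Sf9-made GST–EGFR cytoplasmic region (aa 667 onward), biotin-polyGluTyr, 5 μM ATP with 33P tracer, pH 8.0 Tris/Mg/vanadate/DTT, 30 °C for 1 h; captured on streptavidin Flashplates and counted.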

[1] = test system: HeLa cervical adenocarcinoma; assay: Cell Proliferation Inhibition Assay, Hela (C14 method); type: cell-based; details: Homo sapiens, Table 7
Description: as §1, §2, §3, §4, §5, §6, §7, §8

A375 malignant melanoma = assay: Cell Proliferation Inhibition Assay, A375 (14C-thymidine); type: cell-based; details: Homo sapiens, A-375
Description: as §1, §2, §3, §4, §5, §6, §7, §8

T1 sequence (P00533 669-1210 limits assumed): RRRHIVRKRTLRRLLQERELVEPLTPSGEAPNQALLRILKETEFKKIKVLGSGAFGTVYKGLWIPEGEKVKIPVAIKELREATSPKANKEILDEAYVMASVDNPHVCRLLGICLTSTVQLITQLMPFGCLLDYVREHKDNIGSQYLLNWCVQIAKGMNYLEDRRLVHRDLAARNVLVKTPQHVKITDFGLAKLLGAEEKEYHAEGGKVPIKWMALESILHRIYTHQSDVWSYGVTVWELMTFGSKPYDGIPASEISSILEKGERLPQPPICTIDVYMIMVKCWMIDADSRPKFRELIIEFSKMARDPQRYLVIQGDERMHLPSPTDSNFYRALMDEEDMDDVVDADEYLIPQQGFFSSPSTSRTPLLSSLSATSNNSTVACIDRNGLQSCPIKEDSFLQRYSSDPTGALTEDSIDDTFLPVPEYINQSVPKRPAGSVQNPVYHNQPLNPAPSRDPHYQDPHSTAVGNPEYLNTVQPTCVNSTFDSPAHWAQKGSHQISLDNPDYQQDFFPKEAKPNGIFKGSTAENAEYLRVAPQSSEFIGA

Row | SMILES | IC50 (HCT-116 colon carcinoma) [µM] | IC50 (EGFR) [µM] | IC50 [1] [µM] | IC50 (A375 malignant melanoma) [µM] | inhibition at 2 µM (EGFR) [%]
1 | O=C(Nc1ccc(CN2CCOCC2)cc1)c1sc2ncnc3c2c1NC(=O)N3c1ccc(OCc2ccccn2)c(Cl)c1 [Cpd 52, 5-[3-chloro-4-(pyridin-2-ylmethoxy)-phenyl]-4-oxo-4,5-dihydro-3H-1-thia-3,5,6,8-tetraaza-acenaphthylene-2-carboxylic acid (4-morpholin-4-ylmethyl-phenyl)-amide] | 100 | 0.051 | ≥ 100 | 100 | –
2 | O=C(O)c1sc2ncnc3c2c1NC(=O)N3c1ccc2c(ccn2Cc2cccc(F)c2)c1 [Cpd 77, 5-[1-(3-fluoro-benzyl)-1H-indol-5-yl]-4-oxo-4,5-dihydro-3H-1-thia-3,5,6,8-tetraaza-acenaphthylene-2-carboxylic acid] | 100 | 0.164 | ≥ 100 | 100 | –
3 | CCOC(=O)c1sc2ncnc3c2c1NC(=O)N3c1ccc2c(cnn2Cc2cccc(F)c2)c1 [Cpd 78, 5-[1-(3-fluoro-benzyl)-1H-indazol-5-yl]-4-oxo-4,5-dihydro-3H-1-thia-3,5,6,8-tetraaza-acenaphthylene-2-carboxylic acid ethyl ester] | 100 | 2.22 | ≥ 100 | 100 | –
4 | O=C(O)c1sc2ncnc3c2c1NC(=O)N3c1ccc2c(cnn2Cc2cccc(F)c2)c1 [Cpd 79, 5-[1-(3-fluoro-benzyl)-1H-indazol-5-yl]-4-oxo-4,5-dihydro-3H-1-thia-3,5,6,8-tetraaza-acenaphthylene-2-carboxylic acid] | 100 | 0.302 | ≥ 100 | 100 | –
5 | O=C(Nc1ccc(CN2CCCCC2)cc1)c1sc2ncnc3c2c1NC(=O)N3c1ccc2c(cnn2Cc2cccc(F)c2)c1 [Cpd 80, 5-[1-(3-fluoro-benzyl)-1H-indazol-5-yl]-4-oxo-4,5-dihydro-3H-1-thia-3,5,6,8-tetraaza-acenaphthylene-2-carboxylic acid (4-piperidin-1-ylmethyl-phenyl)-amide] | 14 | 0.036 | 5.14 | 10.1 | –
6 | O=C(Nc1ccc(CN2CCCCC2)cc1)c1sc2ncnc3c2c1NC(=O)N3c1ccc2c(ccn2Cc2cccc(F)c2)c1 [Cpd 87, 5-[1-(3-fluoro-benzyl)-1H-indol-5-yl]-4-oxo-4,5-dihydro-3H-1-thia-3,5,6,8-tetraaza-acenaphthylene-2-carboxylic acid (4-piperidin-1-ylmethyl-phenyl)-amide] | 3.69 | 0.113 | 3.19 | 6.79 | –
7 | CC(C)(C)OC(=O)N1CCC(NC(=O)c2sc3ncnc4c3c2NC(=O)N4c2ccc3c(ccn3Cc3cccc(F)c3)c2)CC1 [Cpd 91, 4-({5-[1-(3-fluoro-benzyl)-1H-indol-5-yl]-4-oxo-4,5-dihydro-3H-1-thia-3,5,6,8-tetraaza-acenaphthylene-2-carbonyl}-amino)-piperidine-1-carboxylic acid tert-butyl ester] | 10 | 0.168 | 1 | 10 | –
8 | CN1CCC(NC(=O)c2sc3ncnc4c3c2NC(=O)N4c2ccc3c(ccn3Cc3cccc(F)c3)c2)CC1 [Cpd 92, 5-[1-(3-fluoro-benzyl)-1H-indol-5-yl]-4-oxo-4,5-dihydro-3H-1-thia-3,5,6,8-tetraaza-acenaphthylene-2-carboxylic acid (1-methyl-piperidin-4-yl)-amide] | 4.36 | 0.045 | 4.3 | 4.89 | –
9 | O=C(NCCN1CCOCC1)c1sc2ncnc3c2c1NC(=O)N3c1ccc2c(ccn2Cc2cccc(F)c2)c1 [Cpd 93, 5-[1-(3-fluoro-benzyl)-1H-indol-5-yl]-4-oxo-4,5-dihydro-3H-1-thia-3,5,6,8-tetraaza-acenaphthylene-2-carboxylic acid (2-morpholin-4-yl-ethyl)-amide] | 10 | 0.07 | ≥ 10 | 10 | –
10 | O=C(Nc1ccc(N2CCOCC2)cc1)c1sc2ncnc3c2c1NC(=O)N3c1ccc2c(ccn2Cc2cccc(F)c2)c1 [Cpd 94, 5-[1-(3-fluoro-benzyl)-1H-indol-5-yl]-4-oxo-4,5-dihydro-3H-1-thia-3,5,6,8-tetraaza-acenaphthylene-2-carboxylic acid (4-morpholin-4-yl-phenyl)-amide] | 100 | 0.264 | ≥ 100 | 100 | –
11 | O=C(NCCCN1CCOCC1)c1sc2ncnc3c2c1NC(=O)N3c1ccc2c(ccn2Cc2cccc(F)c2)c1 [Cpd 95, 5-[1-(3-fluoro-benzyl)-1H-indol-5-yl]-4-oxo-4,5-dihydro-3H-1-thia-3,5,6,8-tetraaza-acenaphthylene-2-carboxylic acid (3-morpholin-4-yl-propyl)-amide] | 10 | 0.069 | ≥ 10 | 10 | –
12 | CCOC(=O)c1sc2ncnc3c2c1NC(=O)N3c1ccc(Oc2ccc(F)cc2)cc1 [Cpd 101, 5-[4-(4-fluoro-phenoxy)-phenyl]-4-oxo-4,5-dihydro-3H-1-thia-3,5,6,8-tetraaza-acenaphthylene-2-carboxylic acid ethyl ester] | 100 | – | ≥ 100 | 100 | 18
13 | CCOC(=O)c1sc2ncnc3c2c1NC(=O)N3c1ccc(C)c(Br)c1 [Cpd 102, 5-(3-bromo-4-methyl-phenyl)-4-oxo-4,5-dihydro-3H-1-thia-3,5,6,8-tetraaza-acenaphthylene-2-carboxylic acid ethyl ester] | 100 | – | ≥ 100 | 100 | 17
14 | CCOC(=O)c1sc2ncnc3c2c1NC(=O)N3c1cc(Br)ccc1C [Cpd 103, 5-(5-bromo-2-methyl-phenyl)-4-oxo-4,5-dihydro-3H-1-thia-3,5,6,8-tetraaza-acenaphthylene-2-carboxylic acid ethyl ester] | 100 | – | ≥ 100 | 100 | 21
15 | Cc1ccc(N2C(=O)Nc3c(C(=O)Nc4ccc(CN5CCOCC5)cc4)sc4ncnc2c34)cc1Br [Cpd 108, 5-(3-bromo-4-methyl-phenyl)-4-oxo-4,5-dihydro-3H-1-thia-3,5,6,8-tetraaza-acenaphthylene-2-carboxylic acid (4-morpholin-4-ylmethyl-phenyl)-amide] | 100 | 0.043 | ≥ 100 | 100 | –
16 | Cc1ccc(Br)cc1N1C(=O)Nc2c(C(=O)Nc3ccc(CN4CCOCC4)cc3)sc3ncnc1c23 [Cpd 109, 5-(5-bromo-2-methyl-phenyl)-4-oxo-4,5-dihydro-3H-1-thia-3,5,6,8-tetraaza-acenaphthylene-2-carboxylic acid (4-morpholin-4-ylmethyl-phenyl)-amide] | 10 | 0.344 | ≥ 10 | 10 | –
17 | O=C(Nc1ccc(CN2CCOCC2)cc1)c1sc2ncnc3c2c1NC(=O)N3c1ccc(Oc2ccc(F)cc2)cc1 [Cpd 110, 5-[4-(4-fluoro-phenoxy)-phenyl]-4-oxo-4,5-dihydro-3H-1-thia-3,5,6,8-tetraaza-acenaphthylene-2-carboxylic acid (4-morpholin-4-ylmethyl-phenyl)-amide] | 10 | 0.034 | 15.5 | 100 | –
18 | Cc1ccc(N2C(=O)Nc3c(C(=O)NC4CCN(C)CC4)sc4ncnc2c34)cc1Br [Cpd 116, 5-(3-bromo-4-methyl-phenyl)-4-oxo-4,5-dihydro-3H-1-thia-3,5,6,8-tetraaza-acenaphthylene-2-carboxylic acid (1-methyl-piperidin-4-yl)-amide] | 10 | 0.146 | ≥ 10 | 10 | –
19 | Cc1ccc(Br)cc1N1C(=O)Nc2c(C(=O)NC3CCN(C)CC3)sc3ncnc1c23 [Cpd 117, 5-(5-bromo-2-methyl-phenyl)-4-oxo-4,5-dihydro-3H-1-thia-3,5,6,8-tetraaza-acenaphthylene-2-carboxylic acid (1-methyl-piperidin-4-yl)-amide] | 100 | 1.78 | ≥ 100 | 100 | –
